# According to patent US20030139391A1 (priority 2000, published 2003):
# Tested on: Patients diagnosed with Alzheimer's Disease
# Experiment: Adverse events and discontinuation in 5-month slow-titration trial
# Type: in vivo, human
# Description: Subjects in the Placebo group received 21 weeks (5 months) of placebo medication.
# The safety of the drug was also monitored throughout the study. Blood samples for biochemistry and haematology and random urine sample for urinalysis were taken at each visit and at completion for all efficacy testing. Systolic and diastolic blood pressure were measured in the sitting position, pulse and vital signs were recorded at each visit.
smiles,measurement,setting,value
"COc1ccc2c3c1O[C@H]1C[C@@H](O)C=C[C@@]31CCN(C)C2 [GAL, galantamine]",Agitation: % of patients,8 mg/day,(15.0%)
same,Agitation: number of patients,8 mg/day,21
same,Anorexia: % of patients,8 mg/day,(5.7%)
same,Anorexia: number of patients,8 mg/day,8
same,Bradycardia: % of patients,8 mg/day,(3.6%)
same,Bradycardia: number of patients,8 mg/day,5
same,Convulsions: number of patients,8 mg/day,0
same,DC due to adverse event: %,8 mg/day,6%
same,DC due to adverse event: N,8 mg/day,9
same,DC due to inefficacy: %,8 mg/day,1 (1%)
same,DC due to inefficacy: N,8 mg/day,1 (1%)
same,Depression: % of patients,8 mg/day,(2.9%)
same,Depression: number of patients,8 mg/day,4
same,Diarrhea: % of patients,8 mg/day,(5.0%)
same,Diarrhea: number of patients,8 mg/day,7
same,Dizziness: % of patients,8 mg/day,(5.0%)
same,Dizziness: number of patients,8 mg/day,7
same,Dyspepsia: % of patients,8 mg/day,(2.9%)
same,Dyspepsia: number of patients,8 mg/day,4
same,Edema peripheral: % of patients,8 mg/day,(6.4%)
same,Edema peripheral: number of patients,8 mg/day,9
same,Fall: % of patients,8 mg/day,(7.9%)
same,Fall: number of patients,8 mg/day,11
same,Fatigue: % of patients,8 mg/day,(2.1%)
same,Fatigue: number of patients,8 mg/day,3
same,Headache: % of patients,8 mg/day,(3.6%)
same,Headache: number of patients,8 mg/day,5
same,Injury: % of patients,8 mg/day,(3.6%)
same,Injury: number of patients,8 mg/day,5
same,Muscle weakness: % of patients,8 mg/day,(0.7%)
same,Muscle weakness: number of patients,8 mg/day,1
same,Nausea: % of patients,8 mg/day,(5.7%)
same,Nausea: number of patients,8 mg/day,8
same,Rhinitis: % of patients,8 mg/day,(6.4%)
same,Rhinitis: number of patients,8 mg/day,9
same,Serious adverse event Abdominal pain: %,8 mg/day,(0.0%)
same,Serious adverse event Abdominal pain: number,8 mg/day,0
same,Serious adverse event Agitation: %,8 mg/day,(1.4%)
same,Serious adverse event Agitation: number,8 mg/day,2
same,Serious adverse event Asthenia: %,8 mg/day,(0.0%)
same,Serious adverse event Asthenia: number,8 mg/day,0
same,Serious adverse event Basal cell carcinoma: %,8 mg/day,(0.0%)
same,Serious adverse event Basal cell carcinoma: number,8 mg/day,0
same,Serious adverse event Breast neoplasm female: %,8 mg/day,(0.0%)
same,Serious adverse event Breast neoplasm female: number,8 mg/day,0
same,Serious adverse event Cardiac failure: %,8 mg/day,(0.0%)
same,Serious adverse event Cardiac failure: number,8 mg/day,0
same,Serious adverse event Dehydration: %,8 mg/day,(0.0%)
same,Serious adverse event Dehydration: number,8 mg/day,0
same,Serious adverse event Diarrhea: %,8 mg/day,(0.0%)
same,Serious adverse event Diarrhea: number,8 mg/day,0
same,Serious adverse event Dyspnea: %,8 mg/day,(0.0%)
same,Serious adverse event Dyspnea: number,8 mg/day,0
same,Serious adverse event Fall: %,8 mg/day,(2.9%)
same,Serious adverse event Fall: number,8 mg/day,4
same,Serious adverse event Gi haemorrhage: %,8 mg/day,(0.0%)
same,Serious adverse event Gi haemorrhage: number,8 mg/day,0
same,Serious adverse event Injury: %,8 mg/day,(0.7%)
same,Serious adverse event Injury: number,8 mg/day,1
same,Serious adverse event Myocardial infarction: %,8 mg/day,(2.1%)
same,Serious adverse event Myocardial infarction: number,8 mg/day,3
same,Serious adverse event Nausea: %,8 mg/day,(0.0%)
same,Serious adverse event Nausea: number,8 mg/day,0
same,Serious adverse event Pneumonia: %,8 mg/day,(0.7%)
same,Serious adverse event Pneumonia: number,8 mg/day,1
same,Serious adverse event Sepsis: %,8 mg/day,(0.0%)
same,Serious adverse event Sepsis: number,8 mg/day,0
same,Serious adverse event Surgical intervention: %,8 mg/day,(0.0%)
same,Serious adverse event Surgical intervention: number,8 mg/day,0
same,Serious adverse event Syncope: %,8 mg/day,(0.7%)
same,Serious adverse event Syncope: number,8 mg/day,1
same,Serious adverse event Thrombophlebitis deep: %,8 mg/day,(0.0%)
same,Serious adverse event Thrombophlebitis deep: number,8 mg/day,0
same,Serious adverse event Transient ischemic attack: %,8 mg/day,(0.7%)
same,Serious adverse event Transient ischemic attack: number,8 mg/day,1
same,Serious adverse event Urinary tracq infection: %,8 mg/day,(0.7%)
same,Serious adverse event Urinary tracq infection: number,8 mg/day,1
same,Serious adverse event Vomiting: %,8 mg/day,(0.0%)
same,Serious adverse event Vomiting: number,8 mg/day,0
same,Syncope: % of patients,8 mg/day,(1.4%)
same,Syncope: number of patients,8 mg/day,2
same,Total discontinued (DC): %,8 mg/day,23%
same,Total discontinued (DC): N,8 mg/day,32
same,Total patients with any SAE: %,8 mg/day,(10.0%)
same,Total patients with any SAE: number,8 mg/day,14
same,Urinary tract infection: % of patients,8 mg/day,(7.9%)
same,Urinary tract infection: number of patients,8 mg/day,11
same,Vomiting: % of patients,8 mg/day,(3.6%)
same,Vomiting: number of patients,8 mg/day,5
same,Weight decrease: % of patients,8 mg/day,(1.4%)
same,Weight decrease: number of patients,8 mg/day,2
same,Agitation: % of patients,16 mg/day,(10.0%)
same,Agitation: number of patients,16 mg/day,28
same,Anorexia: % of patients,16 mg/day,(6.5%)
same,Anorexia: number of patients,16 mg/day,18
same,Bradycardia: % of patients,16 mg/day,(2.5%)
same,Bradycardia: number of patients,16 mg/day,7
same,Convulsions: number of patients,16 mg/day,0
same,DC due to adverse event: %,16 mg/day,7%
same,DC due to adverse event: N,16 mg/day,19
same,DC due to inefficacy: N,16 mg/day,0
same,Depression: % of patients,16 mg/day,(8.6%)
same,Depression: number of patients,16 mg/day,24
same,Diarrhea: % of patients,16 mg/day,(12.2%)
same,Diarrhea: number of patients,16 mg/day,34
same,Dizziness: % of patients,16 mg/day,(5.4%)
same,Dizziness: number of patients,16 mg/day,15
same,Dyspepsia: % of patients,16 mg/day,(4.7%)
same,Dyspepsia: number of patients,16 mg/day,13
same,Edema peripheral: % of patients,16 mg/day,(2.9%)
same,Edema peripheral: number of patients,16 mg/day,8
same,Fall: % of patients,16 mg/day,(5.05%)
same,Fall: number of patients,16 mg/day,14
same,Fatigue: % of patients,16 mg/day,(3.6%)
same,Fatigue: number of patients,16 mg/day,10
same,Headache: % of patients,16 mg/day,(6.8%)
same,Headache: number of patients,16 mg/day,19
same,Injury: % of patients,16 mg/day,(4.3%)
same,Injury: number of patients,16 mg/day,12
same,Muscle weakness: % of patients,16 mg/day,(1.1%)
same,Muscle weakness: number of patients,16 mg/day,3
same,Nausea: % of patients,16 mg/day,(13.3%)
same,Nausea: number of patients,16 mg/day,37
same,Rhinitis: % of patients,16 mg/day,(3.2%)
same,Rhinitis: number of patients,16 mg/day,9
same,Serious adverse event Abdominal pain: %,16 mg/day,(0.7%)
same,Serious adverse event Abdominal pain: number,16 mg/day,2
same,Serious adverse event Agitation: %,16 mg/day,(0.4%)
same,Serious adverse event Agitation: number,16 mg/day,1
same,Serious adverse event Asthenia: %,16 mg/day,(0.7%)
same,Serious adverse event Asthenia: number,16 mg/day,2
same,Serious adverse event Basal cell carcinoma: %,16 mg/day,(0.0%)
same,Serious adverse event Basal cell carcinoma: number,16 mg/day,0
same,Serious adverse event Breast neoplasm female: %,16 mg/day,(0.0%)
same,Serious adverse event Breast neoplasm female: number,16 mg/day,0
same,Serious adverse event Cardiac failure: %,16 mg/day,(1.1%)
